Key:
[1] = system: BLM induced lung fibrosis; experiment: BLM induced unilateral lung fibrosis model; type: in vivo, SD rats; set-up: left lung bronchial and arteriole damages (score), In the fibrosis core (n = 6) / left lung bronchial and arteriole damages (score), In the border of fibrosis (n = 6): scale not given here; details: for body weight, Changes in the ratio (%) / body weight: 10 mg/kg/d ip (n = 6); for body weight: in g (unit assumed)
Procedure: Species and quality level: SD rats, SPF grade; Gender and number: male, 12; Purchasing body weight range: 260-280 g; Company Certificate No.: SCXX (zhe) 2018-0001, Zhejiang Vital River Laboratory Animal Technology Co., Ltd.
Model Establishment: This study was carried out in strict accordance with the SOP institutional guidelines for the care and use of laboratory animals. Rats were anesthetized by intraperitoneal injection of pentobarbital sodium at dose of 50 mg/kg. Then rat neck skin was disinfected and opened in layers. The trachea was exposed carefully. Bleomycin (BLM) was directly injected into left main bronchus at a dose of 3 mg/kg body weight in volume of 1.0 ml/kg via a cannula. After closing the trachea and skin in layers the animal was moved on an electric heat pad at 37° C. to wait waking up from anesthesia before returning to holding cages with free access to water and diet.
Rats were assigned into two groups: Model (Group-1, n=6), CPD-X (Group-2, 10 mg/kg/d, n=6) (Table 13).
a Test article, CPD-X was designed as an intraperitoneal injection once a day starting from day-8 of modeling for 14 days (Table 13). The saline as a vehicle for model group via a ip injection once a day for 14 days.
One day after the last dosing all animals were euthanized according to the standard SOP at KCl. After confirming the animal death the left lung BALF was collected according the standard SOP at KCl. The BALF was frozen in liquid nitrogen and stored at −80° C. The left lungs then were perfused with equal volume of 10% formaldehyde solution (3 mL for each lung).
Lung pathology was processed after lung fixation. All animal hearts were collected at same time, weighted, and fixed in 10% formaldehyde solution for histology examination.
The whole left lung was dehydrated and wax embedded following KCl pathology SOP, then sectioned at […] in thickness. HE and Masson Trichrome staining were processed following KCl pathology standard staining SOPs, whole slides were then scanned by Hamamatsu NanoZoomer Digital Pathology S210 slide scanner after staining. Bronchiole and pulmonary arteriole damage and inflammatory cell infiltration in fibrosis core and fibrotic board area were scored with H&E stained slides (Table 14 and Table 15, FIG. 8), for which 5 different areas were selected in each lung slide. BLM induced left lung injury area and Ashcraft scoring for fibrosis were evaluated with Masson Trichrome stained slides (Table 16 and FIG. 9), for which 10 different areas were selected in each lung slide.
The animal hearts were dehydrated and wax embedded following KCl pathology SOP, then sectioned at […] in thickness. HE staining was processed following KCl pathology standard staining SOPs, whole slides were then scanned by Hamamatsu NanoZoomer Digital Pathology S210 slide scanner after staining. The thickness of left ventricle wall (LV), septum and right ventricle wall (RV) were measured at five different points and calculated the average thickness of LV, septum and RV.
a Statistical analysis was performed using Graphpad prism 6.0 software. Descriptive results were expressed as mean±sem or mean±sd. Statistical comparisons were performed using t-test, two-way ANOVA analysis. The p value <0.05 was considered as statistically significant.

[2] = system: BLM induced lung fibrosis; experiment: BLM induced unilateral lung fibrosis model; type: in vivo, SD rats; details: 10 mg/kg/d ip (n = 6), day 77
[3] = 10 mg/kg ip QD 14 days from day-8, p < 0.05 vs. model

## CC(=O)NC(Cc1ccc(CN)cc1)c1nnc(-c2cccc(OC(F)(F)F)c2)s1 (stereo not drawn) [CPD-X]
[1]
  body weight recovery vs. model group: significant difference in body recovery
  fibrosis by Ashcraft scoring: significant reduction in fibrosis
  share of fibrosis score ≤3: about 80%
[1]; 10 mg/kg ip QD 14 days from day-8, H&E, p < 0.001 vs. model
  left lung bronchial and arteriole damages (score), In the fibrosis core (n = 6): 6.23 ± 0.67
[1]; 10 mg/kg ip QD 14 days from day-8, H&E, p < 0.01 vs. model
  left lung bronchial and arteriole damages (score), In the border of fibrosis (n = 6): 4.8 ± 0.54
[1]; 10 mg/kg ip QD 14 days from day-8, Masson Trichrome, left lung
  Lang damage area (%): 70.69 ± 10.66%
[1]; 10 mg/kg ip QD 14 days from day-8, Masson Trichrome, p < 0.01 vs. model
  Ashcraft fibrosis score: 2.55 ± 0.29
[1]; [3]
  % of fibrosis score (≤3): 90 ± 10.95 %
  % of fibrosis score (≥4): 10 ± 10.95 %
[1]; day 0
  body weight, Changes in the ratio (%): 0%
  body weight: 286.0 ± 6.1
[1]; day 2
  body weight, Changes in the ratio (%): −9.6 ± 3.6%
  body weight: 258.7 ± 13.4
[1]; day 5
  body weight, Changes in the ratio (%): −8.3 ± 6.7%
  body weight: 262.4 ± 22.6
[1]; day 7
  body weight, Changes in the ratio (%): −4.4 ± 7.6%
  body weight: 273.6 ± 24.9
[1]; day 9
  body weight, Changes in the ratio (%): −0.8 ± 7.5%
  body weight: 283.9 ± 24.5
[1]; day 11
  body weight, Changes in the ratio (%): 2.8 ± 7.0%
  body weight: 294.1 ± 23.5
[1]; day 13
  body weight, Changes in the ratio (%): 5.5 ± 6.4%
  body weight: 302.0 ± 22.0
[1]; day 15
  body weight, Changes in the ratio (%): 8.2 ± 6.1%
  body weight: 309.0 ± 20.4
[1]; day 17
  body weight, Changes in the ratio (%): 13.7 ± 6.4%
  body weight: 325.3 ± 21.2
[1]; day 19
  body weight, Changes in the ratio (%): 14.4 ± 5.9%
  body weight: 327.3 ± 20.7
[1]; day 21
  body weight, Changes in the ratio (%): 18.4 ± 5.3%
  body weight: 338.9 ± 19.4
[1]; ip from day-8 of modeling for 14 days
  therapeutic effect (summary): significant improvement in bronchial and arteriole damage and alveolar fibrosis
[1]; no statistic difference as compared to model group
  right ventricle wall thickness: slightly limited the right ventricle wall thickness
[1]; p<0.001
  bronchial and arteriole damages in fibrotic core and border of fibrosis: significant therapeutic effect on reduction of bronchial and arteriole damages
[2]
  body weight, Changes in the ratio (%): 19.4 ± 5.4%
[2]; in g (unit assumed)
  body weight: 341.6 ± 18.8
